# From PMC7659979, “Discovery and Evaluation of Enantiopure 9H-pyrimido[4,5-b]indoles as Nanomolar GSK-3β Inhibitors with Improved Metabolic Stability” (International Journal of Molecular Sciences, 2020)
# Legend:
# [1] = system: GSK3β activity (phospho-GSK3α/β) in neuronal SH-SY5Y cells; assay: Cellular GSK-3α/β inhibition by western blotting in SH-SY5Y cells; format: cell-based, human; details: 1 μM, 1 h of treatment
# Method: Initially, we determined the concentrations of (R)-28 not associated to neurotoxicity by the MTT assay. Therefore, concentrations of 1 and 5 µM were selected for the assays in SH-SY5Y cells, which were performed according to previously described protocols.
# 5. Investigation of Cellular GSK-3α/β Inhibition by (R)-28 and Its Neuroprotective Effects
# Human neuronal SH-SY5Y cells (Sigma Aldrich, St. Louis, MO, USA) were routinely grown in Dulbecco’s modified Eagle’s Medium supplemented with 10% fetal bovine serum, 2 mM L-glutamine, 50 U/mL penicillin and 50 µg/mL streptomycin at 37 °C in a humidified incubator with […]
# SH-SY5Y cells were seeded in a 96-well plate at 2 × 10^4 cells/well, incubated for 24 h and then treated with various concentrations (1.25–40 µM) of (R)-28 for 24 h. Cell viability, in terms of mitochondrial activity, was evaluated by MTT assay, as previously described.
# 5.3. Neuroprotective Activity toward H 2O2
# (§1) SH-SY5Y cells were seeded in a 96-well plate at 2 × 10^4 cells/well, incubated for 24 h and subsequently treated with (R)-28 (5 µM) and H 2O2 (100 µM) for 1 h. Then, cells were starved in complete medium for 22 h. The neuroprotective activity was measured by using the MTT assay as previously described . Data are expressed as a percentage of neurotoxicity versus untreated cells.
# 5.4. […]
# [2] = system: SH-SY5Y cells; assay: Neuroprotective activity toward H2O2 (MTT assay); format: cell-based, human; details: 5 μM, concomitant treatment with H2O2 100 μM
# Method: Next, we investigated the neuroprotective effects of (R)-28 in SH-SY5Y cells against the neurotoxicity induced by neurotoxins. These included hydrogen peroxide (H2O2, 100 μM) and amyloid-β 1–42 oligomers (OAβ1−42, 10 μM), that mimic general oxidative stress and Alzheimer’s disease (AD), respectively. […] Still, these neuroprotective effects against the oxidative stress underline the potential usefulness of inhibitor (R)-28 in the AD therapeutic area.
# 5. Investigation of Cellular GSK-3α/β Inhibition by (R)-28 and Its Neuroprotective Effects […]
# SH-SY5Y cells were seeded in a 96-well plate at 2 × 10^4 cells/well, incubated for 24 h and then treated with various concentrations (1.25–40 µM) of (R)-28 for 24 h. Cell viability, in terms of mitochondrial activity, was evaluated by MTT assay, as previously described. […]
# as §1, with “Then, cells were starved in complete medium for 22 h.” left out, “cells. […]” for “cells.”
# SH-SY5Y cells were seeded in a 96-well plate at 3 × 10^4 cells/well, incubated for 24 h, and subsequently treated with (R)-28 (5 µM) and OAβ 1-42 (10 µM) for 4 h. The neuroprotective activity was measured by using the MTT assay as previously described. […]
smiles,measurement,setting,value
"CCC(=O)N1CCC[C@@H](N(C)c2ncnc3[nH]c4cc(Br)ccc4c23)C1 [Compound (R)-28, (R)-1-(3-((7-bromo-9H-pyrimido[4,5-b]indol-4-yl)(methyl)amino)piperidin-1-yl)propan-1-one]",active phospho-GSK3α/β (Tyr279/Tyr216),[1],decrease
same,inactive phospho-GSK3α/β (Ser21/9),[1],increase
same,neurotoxicity elicited by H2O2,[2],significantly decreased the neurotoxicity
